Reference: article PMC12702776 (Cancer Gene Therapy, 2025)

Key:
RAC1^F28L = target: T1, RAC1^F28L (Homo sapiens, UniProt P63000, F28L); assay: Nucleotide-binding assay (stopped-flow fluorimetry); conditions: faster than RAC1 WT
T1 construct: GST (N); made in house; host or cells: Escherichia coli
Experimental: (§1) The nucleotide-binding properties of RAC1 GTPases were assessed by stopped-flow fluorimetry, as described. Nucleotide association and dissociation rates were measured using fluorescent nucleotides (mdGDP and mGppNHp) and varying RAC1 concentrations. Association (kon) and dissociation (koff) rate constants were determined, and equilibrium dissociation constants (Kd) were calculated as described in Box 2. Detailed procedures are provided in the Supplementary Materials.
(§2) Nucleotide-binding assay. The nucleotide-binding properties of the RAC1 GTPases were assessed using a stopped-flow fluorimetry approach, as described (10). ucleotide association was measured with 0.1 µM fluorescently labeled nucleotides, such as mdGDP and mGppNHp, and varying concentrations of nucleotide-free RAC1 proteins (0.25–5 μM). Measurements were conducted in a buffer containing 30 mM Tris-HCl, pH 7.5, 10 mM KH2PO4/K2HPO4, 5 mM MgCl2, and 3 mM DTT, at 25 °C. The association rate constant (kon) was determined by plotting the observed rate constants (kobs) against the concentration of nucleotide-free RAC1 and analyzing the slope via linear regression using Origin software. The dissociation rate constant (koff) of the fluorescent nucleotide from RAC1 proteins (0.1 µM) was measured by adding a 200-fold excess of the non-fluorescent nucleotide (20 µM). The affinity of RAC1 proteins for GDP and GppNHp was calculated by dividing koff by kon, yielding the equilibrium dissociation constants (Kd), as defined in Box 2 of the main text.

RAC1^WT = target: T2, RAC1^WT (Homo sapiens, UniProt P63000); assay: as above
T2 construct: GST (N); made in house; host or cells: Escherichia coli
Experimental: as §1, §2

RAC1^P29S = target: T3, RAC1^P29S (Homo sapiens, UniProt P63000, P29S); assay: as above; conditions: RAC1 P29S compared to RAC1 WT
T3 construct: GST (N); made in house; host or cells: Escherichia coli
Experimental: as §1, §2

RAC1^T17N = target: T4, RAC1^T17N (Homo sapiens, UniProt P63000, T17N); assay: as above
T4 construct: GST (N); made in house; host or cells: Escherichia coli
Experimental: as §1, §2

IGR1 cells = conditions: cited from earlier work
DOCK2 = target: T5, DOCK2 (Homo sapiens, UniProt Q92608); assay: Active GTPase pull-down assay in IGR1 melanoma cells treated with DOCK2 inhibitor; assay type: cell-based; conditions: serum-stimulated IGR1 cells, 25 µM and 100 µM
T5 construct: endogenous in cells; host or cells: IGR1 human melanoma cells
T5 sequence (Q92608 whole entry): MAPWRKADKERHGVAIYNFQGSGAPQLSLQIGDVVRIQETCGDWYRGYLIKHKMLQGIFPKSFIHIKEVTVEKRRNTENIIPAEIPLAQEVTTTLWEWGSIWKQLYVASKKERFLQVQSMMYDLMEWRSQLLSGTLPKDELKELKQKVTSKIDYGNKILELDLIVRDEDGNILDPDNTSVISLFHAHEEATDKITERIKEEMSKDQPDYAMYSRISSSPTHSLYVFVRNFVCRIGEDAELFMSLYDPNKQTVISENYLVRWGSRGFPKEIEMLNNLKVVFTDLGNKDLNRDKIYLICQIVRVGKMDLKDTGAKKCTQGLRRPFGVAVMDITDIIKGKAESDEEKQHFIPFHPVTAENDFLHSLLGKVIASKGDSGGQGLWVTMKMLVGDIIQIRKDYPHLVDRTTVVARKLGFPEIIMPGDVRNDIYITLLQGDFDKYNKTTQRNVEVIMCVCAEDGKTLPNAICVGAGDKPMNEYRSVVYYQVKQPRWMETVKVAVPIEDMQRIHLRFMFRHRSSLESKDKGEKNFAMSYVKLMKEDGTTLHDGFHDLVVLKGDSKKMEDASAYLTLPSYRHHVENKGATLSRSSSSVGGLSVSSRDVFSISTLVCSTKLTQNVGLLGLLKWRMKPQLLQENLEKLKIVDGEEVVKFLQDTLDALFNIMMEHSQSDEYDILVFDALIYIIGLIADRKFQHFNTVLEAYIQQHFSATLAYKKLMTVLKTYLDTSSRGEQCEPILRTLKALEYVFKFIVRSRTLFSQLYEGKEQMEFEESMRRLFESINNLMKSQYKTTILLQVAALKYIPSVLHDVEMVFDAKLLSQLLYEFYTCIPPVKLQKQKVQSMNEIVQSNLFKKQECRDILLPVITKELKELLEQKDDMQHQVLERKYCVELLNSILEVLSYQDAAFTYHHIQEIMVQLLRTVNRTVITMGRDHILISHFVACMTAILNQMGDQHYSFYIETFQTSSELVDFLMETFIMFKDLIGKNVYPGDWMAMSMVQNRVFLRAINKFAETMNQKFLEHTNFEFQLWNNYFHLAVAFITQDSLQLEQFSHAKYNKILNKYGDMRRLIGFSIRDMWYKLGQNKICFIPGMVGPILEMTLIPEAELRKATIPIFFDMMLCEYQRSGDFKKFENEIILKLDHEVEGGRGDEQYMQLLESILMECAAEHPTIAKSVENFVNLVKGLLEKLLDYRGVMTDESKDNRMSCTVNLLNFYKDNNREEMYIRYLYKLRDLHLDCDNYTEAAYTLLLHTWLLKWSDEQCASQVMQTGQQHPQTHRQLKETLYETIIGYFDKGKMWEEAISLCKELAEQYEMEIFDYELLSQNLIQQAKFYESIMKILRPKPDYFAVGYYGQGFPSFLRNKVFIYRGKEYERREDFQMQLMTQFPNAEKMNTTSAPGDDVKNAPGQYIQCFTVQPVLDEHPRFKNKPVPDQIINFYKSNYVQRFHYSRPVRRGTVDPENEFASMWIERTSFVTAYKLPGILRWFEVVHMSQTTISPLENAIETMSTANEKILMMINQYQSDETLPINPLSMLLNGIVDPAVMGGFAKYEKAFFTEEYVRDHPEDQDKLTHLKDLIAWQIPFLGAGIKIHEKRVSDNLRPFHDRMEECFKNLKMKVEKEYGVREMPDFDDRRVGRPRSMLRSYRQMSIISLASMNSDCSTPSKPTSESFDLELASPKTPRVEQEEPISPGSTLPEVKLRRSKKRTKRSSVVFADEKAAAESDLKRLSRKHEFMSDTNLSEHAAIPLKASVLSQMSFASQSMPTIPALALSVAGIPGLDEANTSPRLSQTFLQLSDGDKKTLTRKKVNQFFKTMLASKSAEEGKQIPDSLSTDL
Experimental: HEK-293T and IGR1 human melanoma cells were cultured under serum-stimulated and serum-starved conditions in DMEM supplemented with 10% FBS and 1% penicillin/streptomycin. The HEK-293T cells were then transfected with RAC1 constructs containing N-terminal 10×His–triple FLAG tags using TurboFect™ (Thermo Fisher Scientific), according to the manufacturer’s protocol. The HEK-293T cells were cultured and harvested under serum-stimulated or serum-starved conditions without additional treatment. IGR1 cells, in contrast, were treated with the DOCK2 inhibitor CPYPP (MedChemExpress) at 25 µM and 100 µM concentrations, with 0.5% DMSO as a vehicle control. After treatment, cells were harvested and lysed, and protein concentrations were determined using the Bradford assay. Detailed protocols, including buffer compositions, are provided in the Supplementary Information.
Experiments were conducted under both serum-stimulated and serum-starved conditions, as described previously. […] After incubation, the beads were washed and analyzed by SDS-PAGE followed by immunoblotting. […]
Cell culture, transfection, and treatment. […] The resulting supernatants were collected for downstream applications, and protein concentrations were determined using the Bradford assay.
Active GTPase pull-down assay. […] Samples were analyzed by SDS-PAGE and immunoblotting […]

DHR2 domain of DOCK2 = test system: DHR2 domain of DOCK2; parameters: method as in PMID 22520755; conditions: cited from earlier work

Kd (RAC1^WT) [nM]	Kd, lower affinity P29S vs WT (RAC1^P29S) [fold]	kon, reduction P29S vs WT (RAC1^P29S) [fold]	Compound	sensitivity of IGR1 cells (RAC1^P29S, BRAF^V600K) (IGR1 cells)	further results
0.3	147	14	CNc1ccccc1C(=O)O[C@H]1C[C@H](n2cnc3c(=O)[nH]c(N)nc32)O[C@@H]1COP(=O)(O)OP(=O)(O)O [mdGDP, methylanthraniloyl-2'-deoxy-guanosine 5′-diphosphate]	–	intrinsic nucleotide dissociation rate, F28L vs WT (RAC1^F28L): 20 fold; koff, increase P29S vs WT (RAC1^P29S): 10 fold; decrease in binding affinity, T17N vs WT (RAC1^T17N; RAC1 T17N compared to RAC1 WT): 1346 fold; dissociation rate, T17N vs WT (RAC1^T17N; higher than RAC1 WT): 410 fold
–	–	–	CCCS(=O)(=O)Nc1ccc(F)c(C(=O)c2c[nH]c3ncc(-c4ccc(Cl)cc4)cc23)c1F [vemurafenib]	reduced sensitivity	–
0.6	289	27	methylanthraniloyl guanosine 5'-[beta,gamma-imido]triphosphate [mGppNHp]	–	–
–	–	–	CC(C)(C)c1nc(-c2cccc(NS(=O)(=O)c3c(F)cccc3F)c2F)c(-c2ccnc(N)n2)s1 [dabrafenib]	reduced sensitivity	–
–	–	–	O=C1NN(c2ccccc2)C(=O)/C1=C/C=C/c1ccccc1Cl [CPYPP]	–	effect on RAC1^P29S activation (DOCK2): reduced RAC1^P29S activation in a dose-dependent manner; effect on DOCK2 catalytic activity (DHR2 domain of DOCK2): reversibly blocking its catalytic activity
